Results reported in patent publication US11608359B2, “Compounds and methods for treating tight junction permeabtility” (9 Meters Biopharma, Inc., priority 2018, dated 2023).
Where no end group is shown, it is not given here.

What was measured:
tight junctions = test: activity as tight junction regulators; conditions: for activity as tight junction regulator: peptide fragment alone
[1] = clinical trials, particularly lower doses (e.g., 0.5 mg dose); cited from earlier work

VLVQPG
activity as tight junction regulator (tight junctions): inactive

GVLVQP (Synthetic polymer.)
activity as tight junction regulator (tight junctions): inactive

GVLVQPG [Larazotide-derived fragment missing N-terminal glycine]
activity as tight junction regulator (tight junctions): inactive

GGVLVQPG [Larazotide]
activity of full length Larazotide as tight junction regulator (tight junctions; mixed with the two fragments GVLVQPG and VLVQPG): completely abolished
benefit at reducing CeD symptoms [1]: significant benefit

VLVQP (Synthetic polymer.)
activity as tight junction regulator (tight junctions): inactive
